In US10676436B2, “NLRX1 ligands” (Landos Biopharma, Inc., priority 2018, dated 2020):

Experiments:
[1] = test system: peripheral blood mononuclear cells (PBMCs) of ulcerative colitis patients; test: Ex vivo treatment of PBMCs of ulcerative colitis patients, flow cytometry; assay type: cell-based, human
Experimental: Samples were obtained from male and female donors clinically categorized as having moderate to severe disease. Age and current medications were not used as exclusion criteria. Whole blood was collected into heparinized vacuum tubes. Whole blood was diluted 1:3 volumes with sterile phosphate buffered saline. LeucoSep (Greiner) were prepared by addition of Lymphocyte Separation Media followed by 15 second centrifugation at max speed. Diluted whole blood was added to LeucoSep tubes. After centrifugation (2000×g, 20 min), PBMCs were collected from the interphase by Pasteur pipette. Remaining red blood cells were lysed by hypotonic lysis and suspension was filtered through a […] cell strainer. PBMCs were washed and re-suspended in sterile cell culture media, RPMI containing 10% fetal bovine serum, 2.5% Hepes solution, 1% L-glutamine, 1% penicillin/streptomycin, 1% sodium pyruvate, and 1% essential amino acids (complete RPMI).
Target cells were incubated for 24 h in complete RPMI culture media at 37° C. Cells were incubated in the presence of NX-13 ranging in concentration from 1 nM to 100 nM. NX-13 stock solution was prepared at 100 mM in dimethyl sulfoxide (DMSO) and diluted to desired concentration in culture media. DMSO concentrations were adjusted to be equal across all doses and vehicle treatments. Six hours prior to assay, cells were stimulated with phorbol 12-myristate 13-acetate (PMA) and ionomycin to stimulate cellular activation. Cells were assayed for desired data at 24 h.
Prior to collection, cells were incubated BD GolgiStop (2 μL GolgiStop to 3 mL of total media) to allow intracellular accumulation of cytokines. Cells were live stained with extracellular (CD45, CD3, CD4, CD8, CD11b) and intracellular (FOXP3, IL-10, IL-4, IFNγ, TNFα) in a sequential manner. Data was acquired on a BD FACs Celesta and analyzed using FACSDiva. Non-viable and non-singlet cells were excluded from analysis. Data is presented as percentage of CD45+ cells or % viable, singlets.

DSS model of colitis = DSS model of colitis (acute model of IBD); assay type: in vivo, mice
Experimental: Mice were given 8% (w/v) DSS in drinking water for seven days to induce disruption of the epithelial layer. At project initiation, mice were 8 weeks of age and began dosing 24 hours after being placed on 8% DSS. Mice were weighed and scored daily for symptoms of disease (diarrhea, rectal bleeding, rectal inflammation, overall behavior). Treatment administration. NX-13 was prepared within a 0.5% methylcellulose (12-15 cP) solution. Dosage used was 20 mg/kg delivered once daily. Mice were weighed on a weekly basis to update dosage formulation. Dosage was calculated based off mean body weights for each gender. Oral dosage was delivered by orogastric gavage of dosage in 0.2 mL volume. Colons were collected into RPMI/FBS buffer containing collagenase (300 U/mL) and DNase (50 U/mL) for digestion. Tissues were digested for 60 minutes under stirring at 37° C. Resultant cellular suspensions were filtered through 100 μm strainers, centrifuged (300×g, 8 min), and washed in fresh RPMI. Following filtration of the resulting single cell suspensions, immune cells were purified by Percoll gradient of cell-containing 40% Percoll overlayed onto 70% Percoll solution. After centrifugation, interphase was collected and washed to obtain enriched colonic lamina propria cell fractions. Cells were labeled with mixtures of extracellular (CD45, CD3, CD4, CD8, CD19, NK1.1, CD25, F4/80, CD11b, Gr1, CX3CR1, CD64) and intracellular (Tbet, RORγT, FOXP3, IFNγ, IL17, IL10) antibodies in a sequential live staining in 96-well plates. Data was acquired using a FACS Celesta flow cytometer with FACSDiva software. Total RNA from colon and cells was generated using the Qiagen RNeasy mini kit. cDNA was generated using the BioRad iScript cDNA synthesis kit. Standard curves were generated by serial dilution of purified product from a standard PCR reaction with Taq DNA polymerase followed by purification using the Qiagen MinElute PCR purification kit. Expression levels were obtained from quantitative real-time PCR with SybrGreen supermix on a BioRad CFX96 Thermal cycler followed by normalization to expression of β-actin.

[2] = test system: MDR1a−/− model of colitis; test: MDR1a−/− model of colitis (chronic model of IBD); assay type: in vivo, mice
Experimental: MDR1a−/− model. Mice deficient in MDR1a spontaneously develop colitis. MDR1a−/− began receiving NX-13 treatment (oral, 20 mg/kg) at 4 weeks of age and continued treatment until 10 weeks of age. Mice were weighed and scored weekly. NX-13 was prepared within a 0.5% methylcellulose (12-15 cP) solution. Dosage used was 20 mg/kg delivered once daily. Mice were weighed on a weekly basis to update dosage formulation. Dosage was calculated based off mean body weights for each gender. Oral dosage was delivered by orogastric gavage of dosage in 0.2 mL volume. Colons were collected into RPMI/FBS buffer containing collagenase (300 U/mL) and DNase (50 U/mL) for digestion. Tissues were digested for 60 minutes under stirring at 37° C. Resultant cellular suspensions were filtered through 100 μm strainers, centrifuged (300× g, 8 min), and washed in fresh RPMI. Following filtration of the resulting single cell suspensions, immune cells were purified by Percoll gradient of cell-containing 40% Percoll overlayed onto 70% Percoll solution. After centrifugation, interphase was collected and washed to obtain enriched colonic lamina propria cell fractions. Cells were labeled with mixtures of extracellular (CD45, CD3, CD4, CD8, CD19, NK1.1, CD25, F4/80, CD11b, Gr1, CX3CR1, CD64) and intracellular (Tbet, RORγT, FOXP3, IFNγ, IL17, IL10) antibodies in a sequential live staining in 96-well plates. Data was acquired using a FACS Celesta flow cytometer with FACSDiva software. H&E stained colonic sections were prepared from portions of colons collected into 10% buffered formalin and embedded in paraffin. Slides were examined by a board-certified veterinary pathologist via an Olympus microscope and images were collected with Image-Pro software. Samples were scored (0-4) for leukocytic infiltration, epithelial erosion and mucosal thickening.

[3] = ulcerative colitis samples, 1 nM
[4] = ulcerative colitis samples, 1 to 100 nM, 24 h
[5] = day 7 of DSS challenge, qRT-PCR, normalized to beta-actin
[6] = oral 20 mg/kg, day 7 of DSS challenge, flow cytometry
[7] = six weeks of treatment, flow cytometry

Cc1cccc(Oc2cc(Oc3cccc(C)n3)cc(Oc3cccc(C)n3)c2)n1 [NX-13, 1,3,5-tris (6-methylpyridin-2-yloxy) benzene]
amount of TNFα present in each cell (mean fluorescent intensity) ([1]; in a dose dependent manner): reduced | concentrations with significant reductions of IFNγ producing cells ([1]; ulcerative colitis samples): ≥ 10 nM | concentrations with significant reductions of TNFα producing cells ([1]; ulcerative colitis samples): ≥ 10 nM | IFNγ producing cells at 1 nM [1, 3]: significant decrease | TNF producing cells at 1 nM [1, 3]: significant reductions were not observed | percentage of IFNγ producing CD4+ T cells [1, 4]: decreased | percentage of TNFα producing CD4+ T cells [1, 4]: decreased | expression of Ifng in the whole colon (DSS model of colitis; [5]): reduced | expression of Tnfa in the whole colon (DSS model of colitis; [5]): reduced | maximal observed reduction of disease activity (DSS model of colitis; oral 20 mg/kg once daily, day 6): 50% | number of FOXP3+ regulatory CD4+ T cells (DSS model of colitis; oral 20 mg/kg, colon): did not reduce | reduction of Th1 cells in the colonic lamina propria (DSS model of colitis; [6]): more than 50% | reduction of neutrophils in the colonic lamina propria (DSS model of colitis; [6]): more than 50% | development of leukocyte aggregates and thickening of the mucosa ([2]; after six weeks of treatment): protected against | overall leukocytic infiltration and epithelial erosion ([2]; after six weeks of treatment): reduced | maximal observed reduction of disease activity ([2]; oral 20 mg/kg once daily, week six of treatment): 70% | colonic pathology ([2]; oral, six weeks of treatment, H&E): greatly reduced | numbers of F4/80hi macrophages [2, 7]: greatly reduced | numbers of IL-17 and IFNγ producing T cells [2, 7]: greatly reduced | proportions of Th1 cells in the colonic lamina propria [2, 7]: reduces | proportions of neutrophils in the colonic lamina propria [2, 7]: reduces | proportions of regulatory CD4+ T (Treg) cells in the colon [2, 7]: increased
